Assay results from ChEMBL document CHEMBL5724558, “Image-based profiling of drug vulnerabilities in CRC organoids” (2024).
Several values for one entry are separate records, joined by “and”; a condition that tells them apart may be missing. Identical values can stand only once.

Experiments:
Type in all cases: functional, Homo sapiens
Parameters in all cases: dose or concentration left out as unconfirmed
Colon cancer organoid [1] = assay: (§1) Image-based profiling of donated chemical probes and chemogenomic kinase set in O21 CRC organoid. Image analysis is performed on the sum area metric, and the data were normalized to the DMSO control. After imaging the organoid viability is measured using the OneGloEX Luciferase Assay System. The normalized viability data and sum area are reported.
Colon cancer organoid [2] = assay: as §1, with “O06” for “O21”
Colon cancer organoid [3] = assay: as §1, with “O09” for “O21”

Row | SMILES | Cell Viability (Colon cancer organoid [1]; Replication number 1) | Cell Viability (Colon cancer organoid [1]; Replication number 2) | Cell Viability (Colon cancer organoid [2]; Replication number 1) | Cell Viability (Colon cancer organoid [2]; Replication number 2) | Cell Viability (Colon cancer organoid [3]; Replication number 1) | Cell Viability (Colon cancer organoid [3]; Replication number 2)
1 | Cc1cc(C)cc([C@@H]2c3cc(C)ccc3NC(=O)CN2C(=O)c2ccc(Br)s2)c1 | 115.521% and 108.165% | 94.8359% and 62.8282% | 111.534% and 83.1141% | 141.021% and 89.6176% | 106.396% and 98.9954% | 263.199% and 111.182%
2 | Cc1c(N2CCCC2)nc2ccc(Br)cc2c1C(=O)NC[C@H](CCC(=O)O)c1ccccc1Cl [BAY-6672] | 101.261% and 132.048% | 101.473% and 100.952% | 80.703% and 111.012% | 84.0903% and 90.3412% | 62.7098% and 89.8462% | 112.488% and 108.842%
3 | Cc1ccc(-c2cnc([C@@]3(O)CC[C@H](C(=O)O)C(C)(C)C3)s2)cc1Nc1cccc(C(F)(F)F)n1 [MRL-SYKi-NC] | 112.056% and 96.0543% | 96.6815% and 86.7347% | 90.9085% and 96.9555% | 94.2486% and 84.0983% | 109.363% and 85.7712% | 161.475% and 115.078%
4 | O=C(NNS(=O)(=O)c1ccccc1)c1cc(-c2ccnnc2)ccc1F [WM-2474] | 113.818% and 97.6719% | 86.2106% and 79.5377% | 103.665% and 117.571% | 96.3756% and 98.5103% | 112.004% and 108.416% | 87.165% and 94.3695%
5 | C[C@@H](NC(=O)Nc1cc2[nH]ncc2c(CO)n1)c1ccccc1 [ERKi] | 47.444% and 52.6843% | 54.1158% and 53.5714% | 27.1255% and 47.7752% | 41.1023% and 64.199% | 38.3769% and 59.9681% | 20.7917% and 30.6681%
6 | CC[C@H](CC(=O)O)n1c(=O)c2ncccc2n(Cc2cn(C)c3cc(C)cc(C)c23)c1=O [BI-1942] | 98.903% and 90.5784% | 95.5994% and 107.07% | 122.43% and 127.53% | 114.507% and 111.004% | 76.1388% and 88.7208% | 109.791% and 100.317%
7 | C[C@H]1CCCN1Cc1nc2cc(NC(=O)c3ccc4cnccc4c3)ccc2[nH]1 | 78.6097% and 94.644% | 77.6333% and 81.0859% | 103.275% and 86.0134% | 127.654% and 99.8938% | 74.8227% and 68.6244% | 83.8481% and 67.5641%
8 | Cc1sc2c(c1C)C(c1ccc(Cl)cc1)=N[C@H](CC(=O)OC(C)(C)C)c1nnc(C)n1-2 | 103.643% and 116.982% | 106.671% and 110.621% | 124.069% and 114.282% | 126.933% and 90.5736% | 84.3348% and 91.1128% | 66.0131% and 88.6601%
9 | CN(C)c1ncnc(-c2ccc3nc(Nc4cc(CN5CCN(C(=O)CC(F)(F)F)CC5)ccn4)[nH]c3c2)c1Cl [BAY-440] | 107.586% and 105.951% | 93.8566% and 87.7551% | 91.3612% and 98.3607% | 93.5115% and 120.107% | 134.702% and 130.21% | 215.997% and 118.583%
10 | Cc1cnc(-c2cc(Cl)ccc2F)cc1-n1c(=O)n(CC(N)=O)c2ccccc21 [Al11] | 94.0699% and 103.674% | 91.9117% and 97.8926% | 119.898% and 115.628% | 113.033% and 103.316% | 78.4595% and 96.5987% | 101.459% and 100.317%
11 | NS(=O)(=O)c1cc(NC(=O)Cc2ccccc2)ccc1Oc1cccc(Cl)c1 [BAY-1797] | 97.444% and 106.533% | 100.538% and 94.898% | 118.794% and 140.984% | 77.9849% and 83.6245% | 109.148% and 118.264% | 102.589% and 110.989%
12 | CCn1cc(-c2cccc(C(F)(F)F)c2)c2sc(C(=N)NC3CCS(=O)(=O)CC3)cc2c1=O | 121.201% and 130.503% | 111.866% and 107.936% | 179.562% and 135.302% | 139.17% and 96.3091% | 136.882% and 100.386% | 86.2111% and 86.0944%
13 | CN(C)C(=O)N1CC[C@H](NC2=Nc3cc(F)ccc3N(CC(F)F)c3ccc(Cl)cc32)C1 | 101.162% and 105.976% | 96.6139% and 109.943% | 112.42% and 113.793% | 60.2365% and 60.6343% | 91.7013% and 91.0686% | 138.489% and 113.836%
14 | COc1ccc(COc2ccc(Cc3cnc(N)nc3N)cc2OC)cc1 [GW632580X] | 84.7531% and 94.7735% | 111.284% and 94.9982% | 58.2611% and 105.272% | 114.527% and 102.005% | 97.2833% and 91.2576% | 140.582% and 107.98%
15 | CCOC(=O)Nc1cc(-c2ccc(C)c(NS(C)(=O)=O)c2)nn2c(C)nnc12 | 101.464% and 109.34% | 124.525% and 131.026% | 97.2241% and 83.1141% | 52.6014% and 56.6383% | 56.4078% and 39.4127% | 74.2439% and 53.3101%
16 | C[C@H]1CC(=O)Nc2cc(C(=O)NCCC3CC3)ccc2N1C(=O)N1CC2CC2C1 (stereo not given in full) | 104.914% and 116.982% | 77.8753% and 111.158% | 181.689% and 143.275% | 157.26% and 132.873% | 82.587% and 82.5348% | 120.178% and 115.743%
17 | NS(=O)(=O)c1cc(NC(=O)C2(c3ccccc3Cl)CC2)ccc1Oc1cccc(Cl)c1 [BAY-207] | 111.619% and 128.655% | 96.7656% and 94.898% | 85.045% and 103.044% | 47.3713% and 82.6769% | 172.466% and 128.537% | 110.661% and 134.648%
18 | Cc1cc(NC(=O)c2cccc(S(F)(F)(F)(F)F)c2)cc(-n2ccn3nc(-c4cccnc4)cc23)c1 [BAY-309] | 93.9876% and 96.6365% | 97.5385% and 109.184% | 100.937% and 113.583% | 92.9473% and 106.13% | 161.366% and 84.5766% | 126.224% and 101.643%
19 | COCc1nc2cnc3cc(-c4c(C)noc4C)c(OC[C@H]4CCNC4)cc3c2n1[C@H](C)c1ccccc1 [GSK778] | 115.801% and 111.859% | 99.2147% and 116.757% | 42.5585% and 78.7045% | 45.6544% and 89.6204% | 36.9836% and 58.5219% | 32.5027% and 49.1673%
20 | OCCn1cc(-c2cnc3nnn(Cc4ccc5ncccc5c4)c3n2)cn1 [PF-04217903] | 106.76% and 119.861% | 108.21% and 119.755% | 92.042% and 100.376% | 104.418% and 102.005% | 126.877% and 95.995% | 92.9183% and 79.3656%
